Where “and” joins values, the source holds several entries; their conditions need not be identical. Equal values may be shown once.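 Following 48 hours of exposure in 96-well plates, responses at five concentrations were used to interpolate endpoints linearly. Here, GI50 denotes the concentration required for 50% inhibition of growth. Definition used: TGI = concentration required for complete inhibition of growth.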 *1 amine or outer side, *2 acyl side, *3 side chain or, on linkers, in order; H or OH if unused. Where a SMILES comes first, the peptide text is derived from it. [ ]: non-standard residue; d: D form. X56 = CC[C@H](C)[C@H](OC(=O)[C@@H](C)[C@@H](CC)N[*:1])C(=O)[*:2]; X32 = C[C@H](N[*:1])C(=O)C(C)(C)C(=O)[*:2]; NMeY = CN[C@@H](Cc1ccc(O)cc1)C(=O)O; NMeL = CN[C@@H](CC(C)C)C(=O)O; NMeV = CN[C@H](C(=O)O)C(C)C
Experiments:
Test in all cases: inhibition of tumour cell growth, NCI panel, 48 h
[1] = system: HT29 colon
[2] = system: COLO 205 colon
[3] = system: NCI-H460 lung
[4] = system: OVCAR-3 ovarian
[5] = system: SF-539 CNS
[6] = system: MALME-3M melanoma
[7] = system: SF-268 CNS
[8] = system: HOP-92 NSCLC
[9] = system: RPMI-8226 leukemia
[10] = system: TK-10 renal

SMILES | TGI [1] | TGI [2] | TGI [3] | TGI [4] | TGI [5] | TGI [6] | TGI [7] | TGI [8] | TGI [9] | TGI [10] | GI50 [1] | GI50 [2] | GI50 [3] | GI50 [10] | GI50 [4] | GI50 [5] | GI50 [7] | GI50 [8] | GI50 [9] | GI50 [6]
COc1ccc(-c2c(N)[n+]([O-])c3ccccc3[n+]2[O-])cc1OC | > 100 µM | > 100 µM | > 100 µM | > 100 µM | > 100 µM | > 100 µM | > 100 µM | > 100 µM | > 100 µM |  |  |  |  |  |  |  |  |  |  | 
Cc1c2c(cc3c(=O)ccn(CCN(C)C)c13)c(=O)ccn2CCN(C)C |  | 24.7 µM | 14.1 µM | 34.9 µM | 29.7 µM | 69.1 µM | 21.8 µM | 31.3 µM |  | 51.3 µM |  |  |  |  |  |  |  |  |  | 
S=c1nc(N2CCCCC2)ss1 | 79.6 µM |  | 80.5 µM |  | 36.6 µM | 35.6 µM | 49.5 µM | 36.7 µM | 18 µM | > 100 µM |  |  |  |  |  |  |  |  |  | 
COc1ccc(N(C)c2c3ccccc3nc3[nH]c4ccccc4c23)cc1 | 10.3 µM | 6.13 µM | 7.12 µM | 1.16 µM | 1.31 µM |  | 2.27 µM | 4.49 µM | 0.528 µM | 1.63 µM | 0.617 µM | 0.347 µM | 0.151 µM | 0.681 µM | 0.261 µM | 0.354 µM | 0.373 µM | 1.07 µM | 0.139 µM | 
CC[C@H](C)[C@@H]1OC(=O)[C@@H](C)[C@@H](CC)NC(=O)[C@H](C)NC(=O)C(C)(C)C(=O)[C@H](C)NC(=O)[C@H](Cc2ccc(OC)cc2)N(C)C(=O)[C@H](C(C)C)N(C)C(=O)CNC(=O)[C@H](CC(C)C)N(C)C(=O)CNC1=O (cyclo(A[X56]G[NMeL]G[NMeV][NMeY](Me)[X32])) | 13.2 µM | > 33.3 µM |  | 0.197 µM and 0.307 µM | 0.0508 µM and 0.126 µM |  |  | 0.238 µM and 0.0316 µM | 3.38 µM | 0.299 µM and 0.0735 µM |  | 0.034 µM |  | 0.0196 µM | 0.0304 µM | 0.0239 µM | < 0.0161 µM | 0.0156 µM | 0.0263 µM | 0.0304 µM
COc1cc(Nc2nc3ccc(C(F)(F)F)cc3nc2-c2ccccc2)cc(OC)c1OC | 5.31 µM |  | 32.3 µM | > 100 µM | > 100 µM | > 100 µM | > 100 µM | 6.17 µM |  | > 100 µM |  |  |  |  |  |  |  |  |  | 
Cc1ccc2c(c1)CNc1ccc(C)cc1CN2 | > 100 µM | > 100 µM | > 100 µM | > 100 µM | > 100 µM |  | > 100 µM | > 100 µM | > 100 µM |  |  |  |  |  |  |  |  |  |  | 
C1=Nc2ccccc2C=Nc2ccccc2C=Nc2ccccc2C=Nc2ccccc21.[Cl-].[Pt+2] | 52.5 µM | 51.4 µM | > 100 µM |  | 54.1 µM |  | 75.9 µM | 48.7 µM | 35.6 µM | > 100 µM | 22.3 µM | 17.3 µM | 25.7 µM | 45.7 µM |  | 23.1 µM | 25.1 µM | 19.3 µM | 5.63 µM | 
N#CC1CC2(C(=O)C1=O)c1ccccc1-c1ccccc12 (stereo unspecified) | > 100 µM | > 100 µM | > 100 µM | > 100 µM |  | > 100 µM | > 100 µM |  |  | > 100 µM |  |  |  |  |  |  |  |  |  | 
Clc1ccc(Nc2ccnc(NCCCNc3ccnc4cc(Cl)ccc34)n2)cc1 | 2.83 µM |  |  |  | 3.19 µM |  |  | 2.85 µM |  | 3.41 µM | 1.29 µM |  |  | 1.94 µM |  | 1.67 µM |  | 1.16 µM |  | 
O=c1c2ccccc2nc(-c2cccc(Cl)c2)n1NCC1(O)OCC(O)C(O)C1O (stereo unspecified) | > 100 µM | > 100 µM | > 100 µM | > 100 µM | > 100 µM | > 100 µM | > 100 µM |  | > 100 µM |  |  |  |  |  |  |  |  |  |  | 
COc1cc2c(c(OC)c1OC)-c1ccc(OC)c(=O)cc1[C@@H](N(C)C=O)CC2 | > 100 µM | 0.0251 µM |  | 0.047 µM | 0.0247 µM | > 100 µM | > 100 µM | 0.111 µM | > 100 µM | > 100 µM |  |  |  |  |  |  |  |  |  | 
O=C(Nc1cccc(-n2cc(-c3ccncc3)c(-c3ccc(O)c(Cl)c3)n2)c1)Nc1cccc(C(F)(F)F)c1 | 13.7 µM | 3.73 µM |  |  | 5.18 µM | 6.45 µM | 9.98 µM | 4.14 µM | 5.13 µM | 9.3 µM | 3.75 µM | 1.96 µM | 2.64 µM | 3.29 µM |  | 1.64 µM | 2.59 µM | 1.07 µM | 1.77 µM | 1.79 µM
O=[N+]([O-])c1ccc(Cl)cc1N/N=C/c1cccc2cccnc12 | > 100 µM | > 100 µM | > 100 µM | > 100 µM | > 100 µM |  | > 100 µM |  | > 100 µM | > 100 µM |  |  |  |  |  |  |  |  |  | 
O=C1CCS/C(=N\S(=O)(=O)c2ccc(N3N=C4c5ccccc5CC4C3c3cccs3)cc2)N1C(=O)c1ccccc1 (stereo unspecified) | > 100 µM | > 100 µM | > 100 µM | 67.1 µM | > 100 µM |  | > 100 µM | > 100 µM | > 100 µM | 54.7 µM | 39.6 µM | 66.5 µM | 26.6 µM | 24.5 µM | 27.4 µM | 2.38 µM | 13.7 µM | 25.4 µM | 5.86 µM | 
CC1C(=O)O[C@H]2C1CC[C@@]1(C)[C@H](O)CC[C@@]13C[C@]2(O)OO3 (stereo partly specified) | > 100 µM | > 100 µM | > 100 µM | > 100 µM |  | > 100 µM | > 100 µM | > 100 µM | > 100 µM | > 100 µM |  |  |  |  |  |  |  |  |  | 
COc1cc2c(cc1OCCCCOc1ccc(-c3nc4ccccc4s3)cc1)N=C[C@@H]1CCCN1C2=O | 15.8 µM | 1.76 µM | 4.06 µM | 3.47 µM | 2 µM |  | 3.58 µM | 0.957 µM | 1.42 µM | 5.17 µM | 0.819 µM | 0.655 µM | 1.56 µM | 1.21 µM | 0.477 µM | 0.768 µM | 0.998 µM | 0.335 µM | 0.337 µM | 
N#Cc1ccc2c(c1)C(=O)c1c-2n(CCCN)c(=O)c2cc([N+](=O)[O-])ccc12 | 0.562 µM | 2.09 µM | 1.14 µM |  | 1.31 µM |  | 1.51 µM | 2.46 µM | 0.815 µM | 3.72 µM | 0.0718 µM | 0.518 µM | 0.0462 µM | 1.74 µM |  | 0.219 µM | 0.0846 µM | 1.08 µM | 0.099 µM | 
Cc1ccc(Oc2ccc([N+](=O)[O-])cc2[N+](=O)[O-])c(C)c1 | 59.3 µM |  | > 100 µM | > 100 µM | > 100 µM | > 100 µM |  |  | 97.7 µM | > 100 µM |  |  |  |  |  |  |  |  |  | 
CC(C)C(=O)/C=C/c1ccc(Cl)c(Cl)c1 | 43.8 µM | 52.3 µM | 48 µM | 27.6 µM | 26 µM |  | 40.4 µM | 34.7 µM | 87 µM | 28.8 µM |  |  |  |  |  |  |  |  |  | 
OCc1ccc(N(CCN2CCCC2)Cc2ccc(F)cc2)cc1Cl | 32.8 µM | 21.5 µM | 13.9 µM | 36.6 µM | 31.2 µM | 40.2 µM | 69 µM |  | 47.4 µM | 34.8 µM | 15.6 µM | 8.66 µM | 3.47 µM | 15 µM | 19.5 µM | 16.4 µM | 21 µM |  | 18.5 µM | 22.3 µM
Cc1nc(C(N)=S)sc1C(=O)C/C(=N/N)C(=O)Nc1ccc(Cl)cc1 | > 100 µM |  | > 100 µM | > 100 µM | > 100 µM | > 100 µM | > 100 µM |  | > 100 µM | > 100 µM |  |  |  |  |  |  |  |  |  | 
CCOC(=O)CSc1[nH]c(NC(=S)Nc2ccccc2)c(C(N)=O)c1C(N)=O | > 10 µM | > 10 µM |  |  |  | > 10 µM | > 10 µM | > 10 µM | > 10 µM | > 10 µM |  |  |  |  |  |  |  |  |  | 
O=C1CS/C(=N\S(=O)(=O)c2ccc(N3N=C4c5ccccc5CC4C3c3ccc(Cl)cc3)cc2)N1c1ccccc1 (stereo unspecified) |  | 16 µM | 48.9 µM | > 100 µM | > 100 µM |  | 84.8 µM | > 100 µM | 88.7 µM | > 100 µM |  | 1.73 µM | 19.7 µM | 29.7 µM | 48.5 µM | 60.2 µM | 22.7 µM | 27 µM | 26.4 µM | 
NC(CC1=CCC=CC1)C(=O)O (stereo unspecified) | > 100 µM | > 100 µM | > 100 µM | > 100 µM |  |  | > 100 µM | > 100 µM | > 100 µM | > 100 µM |  |  |  |  |  |  |  |  |  | 
CSc1ncnc2c1CCN2 | > 100 µM | > 100 µM |  |  |  | > 100 µM | > 100 µM | > 100 µM |  | > 100 µM | > 100 µM | > 100 µM |  | > 100 µM | > 100 µM |  | > 100 µM | 75 µM |  | > 100 µM
COc1ccc(/C=C/NC=O)cc1 | > 100 µM | > 100 µM | > 100 µM | > 100 µM | > 100 µM | > 100 µM | > 100 µM |  | > 100 µM | > 100 µM |  |  |  |  |  |  |  |  |  | 
O=[N+]([O-])c1ccc2nc3ccccc3cc2c1 | 4.4 µM | 14.9 µM | > 100 µM | 1.3 µM | 6.82 µM | 13.3 µM | 83.4 µM | 18.2 µM |  | 5.24 µM |  |  |  |  |  |  |  |  |  | 
CC1(O)CCC2(C#N)CCC1C2O (stereo unspecified) | > 100 µM | > 100 µM | > 100 µM | > 100 µM | > 100 µM | > 100 µM | > 100 µM |  | 54.6 µM | > 100 µM |  |  |  |  |  |  |  |  |  | 

Reference: PubChem BioAssay (NCI)
